# Laboratory results published in ChEMBL document CHEMBL3885861, “Open TG-GATES”.
# Species on record: Rattus norvegicus
# Test: Open TG-GATES - Regimen: Daily Repeat
# Assay type: toxicity, organism-based, Sprague-Dawley
# Design: regimen Daily Repeat, gender Male, age 6 weeks
# Settings: in vivo, po, 0 mg/kg, route gavage, dose level Control; for APTT / Bas / Eos / Fbg / Hb / Ht / Lym / MCH / MCHC / MCV / Mono / Neu / PT / Plat / RBC / Ret / WBC: tissue Blood; for KIDNEY_L / KIDNEY_R / KIDNEY_TOTAL: tissue Kidney; for LIVER: tissue Liver; for A/G / ALP / ALT / AST / BUN / CRE / Ca / Cl / DBIL / GLC / IP / K / LDH / Na / PL / RALB / TBIL / TC / TG / TP / gamma-GTP: tissue Plasma
smiles,measurement,setting,value
CCc1cc(C(N)=S)ccn1 [ETHIONAMIDE],TERMINAL_BW,"72 h, time 3 day",250.2 g
same,APTT,"72 h, time 3 day",17.3 s
same,Bas,"72 h, time 3 day",0%
same,Eos,"72 h, time 3 day",1%
same,Fbg,"72 h, time 3 day",262 mg/dL
same,Hb,"72 h, time 3 day",13.2 g/dL
same,Ht,"72 h, time 3 day",38.9%
same,Lym,"72 h, time 3 day",73%
same,MCH,"72 h, time 3 day",22 pg
same,MCHC,"72 h, time 3 day",33.9%
same,MCV,"72 h, time 3 day",64.7 fL
same,Mono,"72 h, time 3 day",7.6%
same,Neu,"72 h, time 3 day",18.6%
same,PT,"72 h, time 3 day",11.9 s
same,Plat,"72 h, time 3 day",128 x10_4/uL
same,RBC,"72 h, time 3 day",601.2 x10_4/ul
same,Ret,"72 h, time 3 day",12.2%
same,WBC,"72 h, time 3 day",130.2 x10_2/uL
same,KIDNEY_L,"72 h, time 3 day",1.1 g
same,KIDNEY_R,"72 h, time 3 day",1.2 g
same,KIDNEY_TOTAL,"72 h, time 3 day",2.3 g
same,LIVER,"72 h, time 3 day",12.8 g
same,A/G,"72 h, time 3 day",1.6
same,ALP,"72 h, time 3 day",851.8 IU/L
same,ALT,"72 h, time 3 day",39 IU/L
same,AST,"72 h, time 3 day",62.8 IU/L
same,BUN,"72 h, time 3 day",18.2 mg/dL
same,CRE,"72 h, time 3 day",0.5 mg/dL
same,Ca,"72 h, time 3 day",11 mg/dL
same,Cl,"72 h, time 3 day",104.6 meq/L
same,DBIL,"72 h, time 3 day",0.018 mg/dL
same,GLC,"72 h, time 3 day",188.6 mg/dL
same,IP,"72 h, time 3 day",7.3 mg/dL
same,K,"72 h, time 3 day",4.6 meq/L
same,LDH,"72 h, time 3 day",80.2 IU/L
same,Na,"72 h, time 3 day",141 meq/L
same,PL,"72 h, time 3 day",153 mg/dL
same,RALB,"72 h, time 3 day",3.6 g/dL
same,TBIL,"72 h, time 3 day",0.3 mg/dL
same,TC,"72 h, time 3 day",80.6 mg/dL
same,TG,"72 h, time 3 day",99 mg/dL
same,TP,"72 h, time 3 day",5.8 g/dL
same,gamma-GTP,"72 h, time 3 day",2 IU/L
same,TERMINAL_BW,"[…], time 7 day",270.2 g
same,TERMINAL_BW,"[…], time 14 day",326.8 g
same,TERMINAL_BW,"[…], time 28 day",416.8 g
same,APTT,"[…], time 7 day",17.5 s
same,Bas,"[…], time 7 day",0%
same,Eos,"[…], time 7 day",1%
same,Fbg,"[…], time 7 day",218.4 mg/dL
same,Hb,"[…], time 7 day",14.1 g/dL
same,Ht,"[…], time 7 day",41.5%
same,Lym,"[…], time 7 day",78%
same,MCH,"[…], time 7 day",21.4 pg
same,MCHC,"[…], time 7 day",34%
same,MCV,"[…], time 7 day",62.9 fL
same,Mono,"[…], time 7 day",8%
same,Neu,"[…], time 7 day",13%
same,PT,"[…], time 7 day",11.5 s
same,Plat,"[…], time 7 day",119.6 x10_4/uL
same,RBC,"[…], time 7 day",661.6 x10_4/ul
same,Ret,"[…], time 7 day",3.8%
same,WBC,"[…], time 7 day",107.3 x10_2/uL
same,APTT,"[…], time 14 day",18.7 s
same,Bas,"[…], time 14 day",0%
same,Eos,"[…], time 14 day",1%
same,Fbg,"[…], time 14 day",215.4 mg/dL
same,Hb,"[…], time 14 day",14.8 g/dL
same,Ht,"[…], time 14 day",43.6%
same,Lym,"[…], time 14 day",79.6%
same,MCH,"[…], time 14 day",20.5 pg
same,MCHC,"[…], time 14 day",33.8%
same,MCV,"[…], time 14 day",60.8 fL
same,Mono,"[…], time 14 day",5.4%
same,Neu,"[…], time 14 day",14.2%
same,PT,"[…], time 14 day",12 s
same,Plat,"[…], time 14 day",120.6 x10_4/uL
same,RBC,"[…], time 14 day",718.8 x10_4/ul
same,Ret,"[…], time 14 day",4%
same,WBC,"[…], time 14 day",122.9 x10_2/uL
same,APTT,"[…], time 28 day",18.6 s
same,Bas,"[…], time 28 day",0%
same,Eos,"[…], time 28 day",1.6%
same,Fbg,"[…], time 28 day",235.8 mg/dL
same,Hb,"[…], time 28 day",15.6 g/dL
same,Ht,"[…], time 28 day",46%
same,Lym,"[…], time 28 day",78.8%
same,MCH,"[…], time 28 day",19.6 pg
same,MCHC,"[…], time 28 day",34%
same,MCV,"[…], time 28 day",57.7 fL
same,Mono,"[…], time 28 day",6.6%
same,Neu,"[…], time 28 day",13.2%
same,PT,"[…], time 28 day",11.9 s
same,Plat,"[…], time 28 day",116.1 x10_4/uL
same,RBC,"[…], time 28 day",796.2 x10_4/ul
same,Ret,"[…], time 28 day",4.8%
same,WBC,"[…], time 28 day",122.5 x10_2/uL
same,KIDNEY_L,"[…], time 7 day",1.2 g
same,KIDNEY_R,"[…], time 7 day",1.3 g
same,KIDNEY_TOTAL,"[…], time 7 day",2.5 g
same,KIDNEY_L,"[…], time 14 day",1.3 g
same,KIDNEY_R,"[…], time 14 day",1.3 g
same,KIDNEY_TOTAL,"[…], time 14 day",2.7 g
same,KIDNEY_L,"[…], time 28 day",1.6 g
same,KIDNEY_R,"[…], time 28 day",1.6 g
same,KIDNEY_TOTAL,"[…], time 28 day",3.2 g
same,LIVER,"[…], time 7 day",13.2 g
same,LIVER,"[…], time 14 day",14.6 g
same,LIVER,"[…], time 28 day",17.7 g
same,A/G,"[…], time 7 day",1.6
same,ALP,"[…], time 7 day",836.8 IU/L
same,ALT,"[…], time 7 day",30.8 IU/L
same,AST,"[…], time 7 day",58.4 IU/L
same,BUN,"[…], time 7 day",18.4 mg/dL
same,CRE,"[…], time 7 day",0.4 mg/dL
same,Ca,"[…], time 7 day",10.2 mg/dL
same,Cl,"[…], time 7 day",103.8 meq/L
same,DBIL,"[…], time 7 day",0.064 mg/dL
same,GLC,"[…], time 7 day",195.6 mg/dL
same,IP,"[…], time 7 day",7.3 mg/dL
same,K,"[…], time 7 day",4.8 meq/L
same,LDH,"[…], time 7 day",74.6 IU/L
same,Na,"[…], time 7 day",140 meq/L
same,PL,"[…], time 7 day",153.4 mg/dL
same,RALB,"[…], time 7 day",3.7 g/dL
same,TBIL,"[…], time 7 day",0.3 mg/dL
same,TC,"[…], time 7 day",74.2 mg/dL
same,TG,"[…], time 7 day",129.4 mg/dL
same,TP,"[…], time 7 day",6 g/dL
same,gamma-GTP,"[…], time 7 day",2 IU/L
same,A/G,"[…], time 14 day",2.3
same,ALP,"[…], time 14 day",758.4 IU/L
same,ALT,"[…], time 14 day",32 IU/L
same,AST,"[…], time 14 day",62 IU/L
same,BUN,"[…], time 14 day",19.8 mg/dL
same,CRE,"[…], time 14 day",0.5 mg/dL
same,Ca,"[…], time 14 day",10.7 mg/dL
same,Cl,"[…], time 14 day",105.6 meq/L
same,DBIL,"[…], time 14 day",0.052 mg/dL
same,GLC,"[…], time 14 day",196.2 mg/dL
same,IP,"[…], time 14 day",6.8 mg/dL
same,K,"[…], time 14 day",4.7 meq/L
same,LDH,"[…], time 14 day",68.6 IU/L
same,Na,"[…], time 14 day",142 meq/L
same,PL,"[…], time 14 day",146.2 mg/dL
same,RALB,"[…], time 14 day",4.1 g/dL
same,TBIL,"[…], time 14 day",0.3 mg/dL
same,TC,"[…], time 14 day",68.8 mg/dL
same,TG,"[…], time 14 day",111.6 mg/dL
same,TP,"[…], time 14 day",5.8 g/dL
same,gamma-GTP,"[…], time 14 day",1.4 IU/L
same,A/G,"[…], time 28 day",1.8
